Data reported in PubChem BioAssay (NCI).
Several values for one entry are separate records, joined by “and”; a condition that tells them apart may be missing. Identical values can stand only once.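 Assay format: 96-well plates, 48-hour exposure. At the GI50, growth is halved. TGI marks complete inhibition of growth.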

How the values were obtained:
Assay in all cases: NCI-60 cell line screen, 48 h
DMS 114 small cell lung = test system: DMS 114 small cell lung
LOX IMVI melanoma = test system: LOX IMVI melanoma
LXFL 529 NSCLC = test system: LXFL 529 NSCLC
SNB-19 CNS = test system: SNB-19 CNS
HOP-18 NSCLC = test system: HOP-18 NSCLC
HOP-92 NSCLC = test system: HOP-92 NSCLC
KM20L2 colon = test system: KM20L2 colon
M19-MEL melanoma = test system: M19-MEL melanoma

CC(=O)O[C@H]1C(=O)[C@@]2(C)C([C@H](OC(=O)c3ccccc3)[C@]3(O)C[C@H](OC(=O)[C@H](O)[C@H](NC(=O)c4ccccc4)c4ccc(Cl)cc4)C(C)=C1C3(C)C)C1(OC(C)=O)CO[C@@H]1C[C@@H]2O (stereo partly specified)
TGI (DMS 114 small cell lung): 0.000649 µM | TGI (LOX IMVI melanoma): 55.9 µM | TGI (LXFL 529 NSCLC): 26 µM | TGI (SNB-19 CNS): 45.3 µM

O=C(O)CN(c1ccc(Cl)cc1)S(=O)(=O)c1ccccc1
TGI (HOP-18 NSCLC): > 100 µM | TGI (HOP-92 NSCLC): > 100 µM | TGI (KM20L2 colon): > 100 µM | TGI (LOX IMVI melanoma): > 100 µM | TGI (LXFL 529 NSCLC): > 100 µM | TGI (M19-MEL melanoma): > 100 µM | TGI (SNB-19 CNS): > 100 µM

Cc1cc(C)nc(NS(=O)(=O)c2ccc(Nc3c4ccccc4nc4c(C(=O)Nc5ccc(S(N)(=O)=O)cc5)cccc34)cc2)n1
TGI (DMS 114 small cell lung): > 100 µM | TGI (HOP-18 NSCLC): > 100 µM | TGI (HOP-92 NSCLC): > 100 µM | TGI (KM20L2 colon): > 100 µM | TGI (LOX IMVI melanoma): > 100 µM | TGI (LXFL 529 NSCLC): > 100 µM | TGI (M19-MEL melanoma): > 100 µM | TGI (SNB-19 CNS): > 100 µM

N[C@H]1C2C3CC4C5CC(C42)C1(c1ccccc1)C53 (stereo partly specified)
TGI (DMS 114 small cell lung): > 100 µM | TGI (HOP-18 NSCLC): > 100 µM | TGI (HOP-92 NSCLC): > 100 µM | TGI (KM20L2 colon): > 100 µM | TGI (LOX IMVI melanoma): > 100 µM | TGI (LXFL 529 NSCLC): > 100 µM | TGI (M19-MEL melanoma): > 100 µM | TGI (SNB-19 CNS): > 100 µM

NC(N)=NS(=O)(=O)c1ccc(NC(=O)c2cccc3c(Nc4ccc(S(=O)(=O)N=C(N)N)cc4)c4ccc(Cl)cc4nc23)cc1
TGI (DMS 114 small cell lung): > 100 µM | TGI (HOP-18 NSCLC): > 100 µM | TGI (HOP-92 NSCLC): 93 µM | TGI (KM20L2 colon): > 100 µM | TGI (LOX IMVI melanoma): > 100 µM | TGI (LXFL 529 NSCLC): > 100 µM | TGI (SNB-19 CNS): > 100 µM

COc1c(OC(C)=O)ccc(/C=C2\N=C(C)OC2=O)c1[N+](=O)[O-]
TGI (HOP-18 NSCLC): > 100 µM | TGI (HOP-92 NSCLC): > 100 µM | TGI (KM20L2 colon): > 100 µM | TGI (LOX IMVI melanoma): > 100 µM | TGI (LXFL 529 NSCLC): > 100 µM | TGI (M19-MEL melanoma): > 100 µM | TGI (SNB-19 CNS): > 100 µM

O=[N+]([O-])c1ccc(-c2ccc(/C=N/n3c(-c4ccc(Cl)cc4)n[nH]c3=S)o2)cc1
TGI (DMS 114 small cell lung): > 100 µM | TGI (HOP-18 NSCLC): > 100 µM | TGI (HOP-92 NSCLC): > 94.3 µM | TGI (KM20L2 colon): > 65.8 µM | TGI (LOX IMVI melanoma): > 100 µM | TGI (LXFL 529 NSCLC): > 71.1 µM | TGI (M19-MEL melanoma): > 55.8 µM | TGI (SNB-19 CNS): > 72.7 µM

COC1C=C(Nc2cccc(Cl)c2)C(=O)C1 (stereo unspecified)
TGI (DMS 114 small cell lung): > 100 µM | TGI (HOP-18 NSCLC): 76.2 µM | TGI (HOP-92 NSCLC): > 100 µM | TGI (KM20L2 colon): > 100 µM | TGI (LOX IMVI melanoma): > 100 µM | TGI (LXFL 529 NSCLC): > 100 µM | TGI (M19-MEL melanoma): > 100 µM | TGI (SNB-19 CNS): > 100 µM

CCOC(=O)CCC(NC(=O)c1ccc(N=Cc2nc3cc(C(F)(F)F)ccc3nc2-c2ccccc2)cc1)C(=O)OCC (stereo unspecified)
TGI (DMS 114 small cell lung): > 100 µM | TGI (HOP-18 NSCLC): > 100 µM | GI50 (HOP-92 NSCLC): 12.5 µM | TGI (HOP-92 NSCLC): 18.3 µM and 45.8 µM | GI50 (KM20L2 colon): > 100 µM | TGI (KM20L2 colon): > 100 µM | GI50 (LOX IMVI melanoma): > 100 µM | TGI (LOX IMVI melanoma): 50 µM and > 100 µM | GI50 (LXFL 529 NSCLC): > 100 µM | TGI (LXFL 529 NSCLC): 50 µM and > 100 µM | GI50 (M19-MEL melanoma): > 100 µM | TGI (M19-MEL melanoma): > 100 µM | GI50 (SNB-19 CNS): 8.51 µM | TGI (SNB-19 CNS): 29.2 µM and 31.9 µM
